Results published in PubChem BioAssay AID2060624 (Molecular Pharmacology Branch, DTP, NCI, 2025).
Where “and” joins values, the source holds several entries; their conditions need not be identical. Identical values can stand only once.

Tested on: 217524-143-R1-J4-PDC spheroids with HUVEC/MSC, viability
Experiment: Anticancer human tumor 217524-143-R1-J4-PDC patient-derived pancreatic carcinoma cell line growth inhibition [CLK]
Conditions: for viability, T/C: stronger effect = lower value; for IC50: curve of compound
Text: A high-throughput screen of multi-cell type tumor spheroids was designed to identify active combinations of […] and targeted small molecules. Complex spheroids include a stromal component modeled by human endothelial cells (HUVEC) and fibroblasts modeled by human mesenchymal stem cells (MSCs). The concentration ranges selected for each drug and investigational agent were based upon clinically achievable concentrations if the clinical Cmax of the agent was known.
Compounds. The drugs and investigational agents: cirtuvivint (SM08502; NSC835563), CC-671 (NSC850746), vemurafenib (NSC761431), tapotoclax (NSC804041), sotorasib (NSC818433), adagrasib (NSC831453), MRTX-1133 (NSC836407), BAY2416964 (NSC825713), copanlisib (NSC816437), inavolisib (NSC800729), abemaciclib (NSC768073), osimertinib (NSC779217), entinostat (NSC756642), eltanexor (KPT-8602, NSC794443), venetoclax (NSC766270), ceralasertib (NSC777638), bortezomib (NSC756655), olaparib (NSC753686), talazoparib (NSC767125), alisertib (NSC759677), peposertib (NSC802822), gemcitabine (NSC613327), 5-fluorouracil (NSC19893), SN-38 (NSC673596), oxaliplatin (NSC266046), paclitaxel (NSC125973), and doxorubicin (NSC123127), were obtained from the National Cancer Institute (NCI) Developmental Therapeutics Program Chemical Repository. The FDA-approved anticancer drug set is available from the Developmental Therapeutics Program at https://dtp.cancer.gov/organization/dscb/obtaining/available plates.htm. […] The stock solutions were prepared in dimethyl sulfoxide (DMSO, Sigma-Aldrich, St. Louis, MO, cat. D2650), except for the platinum complexes which were prepared in saline (Quality Biological, Gaithersburg, MD, cat. 114-055-101), at 800-fold the tested concentration and stored at -70 degrees C prior to their use. All drugs and investigational agents were tested over a range starting from a high concentration at or near the clinical Cmax and decreasing in half-log increments. If the clinical Cmax for an agent had not been determined, the highest concentration tested was 10 microM.
Cell Culture. All cells were maintained in an incubator at 37 degrees C and 5% CO2 with 95% humidity. The PDC lines were cultured according to standard operating procedures established by the NCI PDMR. Briefly, all PDCs were thawed and cultured in Matrigel-coated flasks prepared with a working solution of 1X Ham's F-12 nutrient mix, without supplementation (Invitrogen, Waltham, MA, cat. 11765054), 100 U/mL penicillin-streptomycin (Invitrogen, cat. 15140122), and 2.5% Matrigel (Corning Inc., Corning, NY, cat. 354248) for the first three passages. The 947758-054-R-J2-PDC line was cultured in 6B/Colon 1A media, which includes advanced DMEM/F-12 (Thermo Fisher Scientific, cat. 12634028), 10 mM HEPES (Thermo Fisher Scientific, cat. 15630080), 1X GlutaMAX supplement (Thermo Fisher Scientific, cat. 35050061), 0.1 mg/mL primocin (InvivoGen, cat. ant-pm-2), 10% defined fetal bovine serum, heat inactivated (HyClone Laboratories Inc., cat. SH30070.03HI), 1.25 mM N-Acetyl-L-cysteine (Sigma-Aldrich, cat. A9165), 10 mM nicotinamide (Sigma-Aldrich, cat. N0636), 1X B-27 supplement (Thermo Fisher Scientific, cat. 17504044), 1X N-2 supplement (Thermo Fisher Scientific, cat. 17502048), and 10 microM Y-27632 dihydrochloride (Tocris Bioscience, cat. 1254). The 876862-298-R-J1-PDC was cultured in 6E media, which includes all 6B/Colon 1A media components plus 50% L-WRN conditioned media (ATCC, cat. CRL-3276), 50 ng/mL recombinant human EGF recombinant protein (hEGF; Thermo Fisher Scientific, cat. PHG0311), 10 ng/mL recombinant human fibroblast growth factor 10 (hGFG-10; PeproTech, cat. 100-26), 1 ng/mL recombinant human fibroblast growth factor 2 (hFGF-2; PeproTech, cat. 100-18B), and 1 µM prostaglandin E2 (PGE2; Tocris, cat. 2296). The 227483-062-R1-J1-PDC line was cultured in Panc media, containing all 6E components except hFGF-2, with the addition of 500 nM SB-431542 (Selleckchem, cat. S1067) and 10 nM gastrin (Tocris, cat. 3006). […]
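Also: spheroids exposed to agents for seven days before reading.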
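For viability, T/C in this document: 100% = DMSO vehicle control viability.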

`C#Cc1c(F)ccc2cc(O)cc(-c3ncc4c(N5CC6CCC(C5)N6)nc(OCC56CCCN5CC(F)C6)nc4c3F)c12` (configuration not stated) was tested, and the viability, T/C (compound 0.0316 µM) was 101% and 98%, the viability, T/C (compound 0.1 µM) was 81.7% and 90.2% and the viability, T/C (compound 0.316 µM) was 88.5% and 86.4%. The viability, T/C (compound 1 µM) was 85% and 85.9%, the viability, T/C (compound 3.16 µM) was 86.7% and 68% and the viability, T/C (compound 10 µM) was 59% and 77.1%. For the same molecule, the IC50 was > 10 µM.
For `C=C(F)C(=O)N1CCN(c2nc(OCC3CCCN3C)nc3c2CCN(c2cccc4cccc(Cl)c24)C3)CC1CC#N` (configuration not stated), the viability, T/C (compound 0.0316 µM) was 91.8% and 102%, the viability, T/C (compound 0.1 µM) was 113% and 96.7% and the viability, T/C (compound 0.316 µM) was 109% and 106%. The viability, T/C (compound 1 µM) was 73.5% and 108%, the viability, T/C (compound 3.16 µM) was 85.6% and 87.4% and the viability, T/C (compound 10 µM) was 3.02% and 4.54%. The IC50 was 4.87 µM and 5.32 µM.
With `C=CC(=O)N1CCN(c2nc(=O)n(-c3c(C)ccnc3C(C)C)c3nc(-c4c(O)cccc4F)c(F)cc23)C(C)C1` (configuration not stated) the viability, T/C (compound 0.0316 µM) was 98.7% and 109%, the viability, T/C (compound 0.1 µM) was 72.6% and 98% and the viability, T/C (compound 0.316 µM) was 78.3% and 113%. The viability, T/C (compound 1 µM) was 96.4% and 111%, the viability, T/C (compound 3.16 µM) was 126% and 111% and the viability, T/C (compound 10 µM) was 103%. The IC50 was > 10 µM.
With `C=CC(=O)Nc1cc(Nc2nccc(-c3cn(C)c4ccccc34)n2)c(OC)cc1N(C)CCN(C)C` the viability, T/C (compound 0.000949 µM) was 106% and 100%, the viability, T/C (compound 0.003 µM) was 83.4% and 96.4% and the viability, T/C (compound 0.00949 µM) was 100% and 92.1%. For the same molecule, the viability, T/C (compound 0.03 µM) was 90.3% and 81.1%, the viability, T/C (compound 0.0949 µM) was 57.1% and 43.5% and the viability, T/C (compound 0.3 µM) was 35.3% and 33.1%. The IC50 was 0.137 µM and 0.0787 µM.
In the case of `CC(=O)O[C@H]1C(=O)[C@@]2(C)[C@H]([C@H](OC(=O)c3ccccc3)[C@]3(O)C[C@H](OC(=O)[C@H](O)[C@@H](NC(=O)c4ccccc4)c4ccccc4)C(C)=C1C3(C)C)[C@]1(OC(C)=O)CO[C@@H]1C[C@@H]2O`, the viability, T/C (compound 0.0316 µM) is reported as 12.7% and 12%, the viability, T/C (compound 0.1 µM) is reported as 12.4% and 12.9% and the viability, T/C (compound 0.316 µM) is reported as 10.1% and 12.3%. The viability, T/C (compound 1 µM) was 9.86% and 10.8%, the viability, T/C (compound 3.16 µM) was 13.6% and 14.1% and the viability, T/C (compound 10 µM) was 16% and 16.4%. The IC50 was < 0.0316 µM.
With `CC(C)CC(NC(=O)C(Cc1ccccc1)NC(=O)c1cnccn1)B(O)O` (configuration not stated) the viability, T/C (compound 0.000949 µM) was 107% and 103%, the viability, T/C (compound 0.003 µM) was 68% and 61.1% and the viability, T/C (compound 0.00949 µM) was 27% and 19.8%. The viability, T/C (compound 0.03 µM) was 10.3% and 6.71%, the viability, T/C (compound 0.0949 µM) was 6.69% and 3.3% and the viability, T/C (compound 0.3 µM) was 2.39% and 1.64%. The IC50 was 0.00499 µM and 0.00409 µM.
In the case of `CC(CO)NC(=O)c1cc(-c2ccc(Cl)cc2)nn(-c2cnn(C)c2)c1=O` (configuration not stated), the viability, T/C (compound 0.0316 µM) is reported as 110% and 92.8%, the viability, T/C (compound 0.1 µM) is reported as 94.5% and 72.6% and the viability, T/C (compound 0.316 µM) is reported as 91.5% and 92.9%. For the same molecule, the viability, T/C (compound 1 µM) was 89.1% and 89.9%, the viability, T/C (compound 3.16 µM) was 106% and 95.8% and the viability, T/C (compound 10 µM) was 78.1% and 85.5%. For the same molecule, the IC50 was > 10 µM.
With `CC(Nc1ccc2c(c1)OCCn1cc(N3C(=O)OCC3C(F)F)nc1-2)C(N)=O` (configuration not stated) the viability, T/C (compound 0.0316 µM) was 77.3% and 57.6%, the viability, T/C (compound 0.1 µM) was 36% and 29.8% and the viability, T/C (compound 0.316 µM) was 16.3% and 11.6%. The viability, T/C (compound 1 µM) was 8.54% and 7.09%, the viability, T/C (compound 3.16 µM) was 6.58% and 6.55% and the viability, T/C (compound 10 µM) was 4.15% and 4.2%. For the same molecule, the IC50 was 0.0676 µM and 0.0433 µM.
`CC1(C)CCC(CN2CCN(c3ccc(C(=O)NS(=O)(=O)c4ccc(NCC5CCOCC5)c([N+](=O)[O-])c4)c(Oc4cnc5[nH]ccc5c4)c3)CC2)=C(c2ccc(Cl)cc2)C1` was tested, and the viability, T/C (compound 0.0316 µM) was 121% and 110%, the viability, T/C (compound 0.1 µM) was 89.1% and 75.1% and the viability, T/C (compound 0.316 µM) was 99.5% and 103%. For the same molecule, the viability, T/C (compound 1 µM) was 89.8% and 80.3%, the viability, T/C (compound 3.16 µM) was 101% and 86.2% and the viability, T/C (compound 10 µM) was 10.7% and 79.9%. For the same molecule, the IC50 was 6.03 µM and > 10 µM.
In the case of `CC1COCCN1c1cc(C2(S(C)(=N)=O)CC2)nc(-c2ccnc3[nH]ccc23)n1` (configuration not stated), the viability, T/C (compound 0.0316 µM) is reported as 102% and 109%, the viability, T/C (compound 0.1 µM) is reported as 94.1% and 75.7% and the viability, T/C (compound 0.316 µM) is reported as 87.9% and 82.8%. For the same molecule, the viability, T/C (compound 1 µM) was 89.5% and 69.8%, the viability, T/C (compound 3.16 µM) was 35.7% and 35% and the viability, T/C (compound 10 µM) was 21.4% and 20.1%. The IC50 was 2.33 µM and 1.89 µM.
For `CCCS(=O)(=O)Nc1ccc(F)c(C(=O)c2c[nH]c3ncc(-c4ccc(Cl)cc4)cc23)c1F`, the viability, T/C (compound 0.0316 µM) was 111% and 94.5%, the viability, T/C (compound 0.1 µM) was 110% and 95% and the viability, T/C (compound 0.316 µM) was 109% and 117%. For the same molecule, the viability, T/C (compound 1 µM) was 138% and 127%, the viability, T/C (compound 3.16 µM) was 144% and 134% and the viability, T/C (compound 10 µM) was 59.8% and 57%. The IC50 was > 10 µM.
